Source: ChEMBL document CHEMBL3137381, “MMV Box Onchocerca lienalis screening set”

Legend:
Format in all cases: functional
[1] = test system: Onchocerca lienalis; assay: MMV: Percent motility assay at a compound concentration of 1.25e-5 M. Activity score legend: 3: Active, 2: Moderately active; 1: Inactive, 0: Toxic; details: at 12.5 µM
[2] = test system: Onchocerca lienalis; assay: MMV: Percent motility assay at a compound concentration of 3.1e-6 M. Activity score legend: 3: Active, 2: Moderately active; 1: Inactive, 0: Toxic; details: at 3.1 µM
[3] = test system: Onchocerca lienalis; assay: MMV: Percent motility assay at a compound concentration of 1.9e-7 M. Activity score legend: 3: Active, 2: Moderately active; 1: Inactive, 0: Toxic; details: at 0.19 µM
[4] = test system: Onchocerca lienalis; assay: MMV: Percent motility assay at a compound concentration of 7.8e-7 M. Activity score legend: 3: Active, 2: Moderately active; 1: Inactive, 0: Toxic; details: at 0.78 µM

COc1ccc(-c2cc3c(nn2)-c2ccccc2C3=O)cc1
Motility [1]: 100% | Motility [2]: 100% | Motility [3]: 100% | Motility [4]: 100%

COc1ccc(C2c3ccc4ccccc4c3Oc3ncn(CCCN(C)C)c(=N)c32)cc1 (stereo not given)
Motility [1]: 100% | Motility [2]: 100% | Motility [3]: 100% | Motility [4]: 100%

c1ccc(/C2=N/c3ccccc3/N=C(/c3ccccc3)c3ccccc32)cc1
Motility [1]: 100% | Motility [2]: 100% | Motility [3]: 100% | Motility [4]: 100%

CCOC(=O)c1c(C)n(-c2ccccc2)c2ccc(OC(=O)c3cc(OC)c(OC)c(OC)c3)cc12
Motility [1]: 100% | Motility [2]: 100% | Motility [3]: 100% | Motility [4]: 100%

COc1ccc(C2c3ccc4ccccc4c3Oc3ncn(CCCn4ccnc4)c(=N)c32)cc1OC (stereo not given)
Motility [1]: 100% | Motility [2]: 100% | Motility [3]: 100% | Motility [4]: 100%

CN(N=O)C1=C(NC2CCCCC2)C(=O)c2ccccc2C1=O
Motility [1]: 100% | Motility [2]: 100% | Motility [3]: 100% | Motility [4]: 100%

CCOC(=O)C1=C(C)N=c2sc(=Cc3ccccc3O)c(=O)n2C1c1ccc(OC)c2ccccc12 (stereo not given)
Motility [1]: 100% | Motility [2]: 100% | Motility [3]: 100% | Motility [4]: 100%

COc1ccc(CN2CCCC(C(=O)c3ccc(C(F)(F)F)cc3)C2)c(O)c1 (stereo not given)
Motility [1]: 100% | Motility [2]: 100% | Motility [3]: 100% | Motility [4]: 100%

O=C(NC1CCCCC1)C(c1cccs1)N(CCc1ccccc1)C(=O)c1ccco1 (stereo not given)
Motility [1]: 100% | Motility [2]: 100% | Motility [3]: 100% | Motility [4]: 100%

CC(Oc1ccc(NC(=O)c2cccs2)cc1)C(=O)c1ccc(Cl)cc1 (stereo not given)
Motility [1]: 100% | Motility [2]: 100% | Motility [3]: 100% | Motility [4]: 100%

Cl.c1ccc2c(NCCCCCCNc3c4c(nc5ccccc35)CCCC4)c3c(nc2c1)CCCC3
Motility [1]: 100% | Motility [2]: 100% | Motility [3]: 100% | Motility [4]: 100%

Brc1ccc(Nc2nc3ccccc3nc2Nc2ccc(Br)cc2)cc1
Motility [1]: 100% | Motility [2]: 100% | Motility [3]: 100% | Motility [4]: 100%

O=C(NC1CCN(Cc2ccccc2)CC1)c1cc(C(=O)NC2CCN(Cc3ccccc3)CC2)cc(C(=O)NC2CCN(Cc3ccccc3)CC2)c1
Motility [1]: 100% | Motility [2]: 100% | Motility [3]: 100% | Motility [4]: 100%

Nc1ccc(-c2nc3cc(Cc4ccc5[nH]c(-c6ccc(N)cc6)nc5c4)ccc3[nH]2)cc1
Motility [1]: 0% | Motility [2]: 66.66% | Motility [3]: 100% | Motility [4]: 100%

COc1ccc(-c2cn3c(C(=O)Nc4ccccc4Cl)c(-c4ccccc4)c4c3n2CCCC4)cc1
Motility [1]: 66.66% | Motility [2]: 100% | Motility [3]: 100% | Motility [4]: 100%

CCCCOC(=O)c1ccc(Nc2cc(C)nc3ccc(OC)cc23)cc1
Motility [1]: 100% | Motility [2]: 100% | Motility [3]: 100% | Motility [4]: 100%

Cc1cc(Nc2ccc(OCc3ccccc3)cc2)nc2cc(O)ccc12
Motility [1]: 66.66% | Motility [2]: 100% | Motility [3]: 100% | Motility [4]: 100%

CCN(CC)CCNc1ccnc2cc3ccccc3cc12.O=P(O)(O)O
Motility [1]: 100% | Motility [2]: 100% | Motility [3]: 100% | Motility [4]: 100%

N=c1c2ccccc2nnn1-c1cccc(C(F)(F)F)c1
Motility [1]: 100% | Motility [2]: 100% | Motility [3]: 100% | Motility [4]: 100%

COc1cc(-c2nc(-c3ccc(Sc4ccccc4)cc3)c(-c3ccccc3)[nH]2)cc(OC)c1O
Motility [1]: 100% | Motility [2]: 100% | Motility [3]: 100% | Motility [4]: 100%

COc1ccc(C2NCCc3c2[nH]c2ccccc32)cc1CN1CCN(c2ccc(F)cc2)CC1.Cl (stereo not given)
Motility [1]: 100% | Motility [2]: 100% | Motility [3]: 100% | Motility [4]: 100%

OC(Cn1nnc2ccccc21)Cn1c2ccc(Br)cc2c2cc(Br)ccc21 (stereo not given)
Motility [1]: 100% | Motility [2]: 100% | Motility [3]: 100% | Motility [4]: 100%

CCOc1ccc(-n2cc(-c3ccccc3)c3c(SCc4cc(C)ccc4C)ncnc32)cc1
Motility [1]: 100% | Motility [2]: 100% | Motility [3]: 100% | Motility [4]: 100%

Cc1ccc(C)c(Cn2c(N3CCC(C(=O)NCc4cccs4)CC3)nc3ccccc32)c1
Motility [1]: 100% | Motility [2]: 100% | Motility [3]: 100% | Motility [4]: 100%

Cc1ccccc1OCCSc1nc2ccc(NC(=O)c3cccs3)cc2s1
Motility [1]: 100% | Motility [2]: 100% | Motility [3]: 100% | Motility [4]: 100%
